According to patent EP1900377A1, “Inhibitors of GPR87 for cancer therapy” (Boehringer Ingelheim International GmbH, priority 2006, dated 2008):

System: HN5 cells
Experiment: Rescue experiment: antibody pre-incubated with GPR87 N-terminal peptide
Format: cell-based, human
Conditions: 50 ug/ml antibody, increasing amounts of peptide, Fig. 7B
Description: Antibody targeting of hGPR87 on living cells is performed as follows: For antibody applications on living HN5 cells, a rabbit anti-hGPR87, directed against the N-terminus of hGPR87 (Novus Biologicals) is used (in Fig. 7A: N-term). HN5 cells are seeded (75000/6-well and 3000/96-well) the day prior to the antibody treatment. The antibody is used at a concentration of 50 ug/ml in medium without serum. 48 h after antibody addition the cells are either lysed for western blot analysis or analysed by AlamarBlue staining. Briefly, 10 ul of AlamarBlue reagent (Biosource, Camarillo USA/CA) are added to 100 ul medium and incubated until a change in color can be recognized (~6 hours). As a control, 50ug/ml antibody targeting C-terminal domain of human GPR87 is used (in Fig. 7A: C-term). Since antibodies are dissolved in PBS containing 0.01 %sodium azide, 0.01% sodium azide in PBS is added to the cells as a control to exclude toxic side effects (SA ctrl in Fig. 7A).
To determine the specificity of the anti-GPR87 antibody recognizing the N-terminus, in a so-called "rescue experiment", a peptide covering the first 46 amino acids of SEQ ID NO:2, is added. (The amounts used are 50 ug/ml of antibody and increasing amounts of GPR87 N-terminal peptide). […] The reversibility of the effects (proliferation and viability) correlates with the concentration of the blocking peptide (Fig. 7B).

GPR87 N-terminal peptide: a peptide covering the first 46 amino acids of SEQ ID NO:2 (MGFNLTLAKLPNNELHGQESHNSGNRSDGPGKNTTLHNEFDTIVLP)
reversal of the pro-apoptotic, anti-proliferative effect of the antibody: can be reversed
